US8227425B2, “Antiviral compounds” (Therapicon Srl, priority 2007, dated 2012)
Like-named read-outs stand apart in the source and are kept apart here.

Tests used:
Experiment in all cases: microbe, parasite or virus in culture
A/Panama/2007/99-H3N2 = type: cell-based, influenza virus type A; conditions: for IC50: Influenza A virus, H3N2, MDCK, 72 h, read-out: concentration of the compound necessary to reduce the plaques number to 50% against the control
[1] = tested on: A/NewCaledonia/20/99-H1N1; type: cell-based, influenza virus type A; conditions: for IC50: Influenza A virus, H1N1, MDCK, 72 h, read-out: concentration of the compound necessary to reduce the plaques number to 50% against the control
B/Shandong/7/97 = type: cell-based; conditions: for IC50: Influenza B virus, 72 h, read-out: concentration of the compound necessary to reduce the plaques number to 50% against the control
[2] = MDCK cells, about 50 PFU/ml, 3 days, tested 0.01-100 μM, duplicate

With NC12CC3CC(CC(C3)C1)C2 [Amantadine, amantadine, reference compound] the IC50 (A/Panama/2007/99-H3N2) was 10 µM, the IC50 [1] was 0.1 µM and the IC50 (B/Shandong/7/97; MDCK) was over 100 µM.
With CC(=O)NC1C(O)CC(O)(C(=O)O)OC1CNC12CC3CC(CC(C3)C1)C2 (stereo not shown) [Compound 1] the IC50 (A/Panama/2007/99-H3N2) was 10 µM, the “antiviral activity relative to amantadine (fold less)” value [1] was 10 fold and the IC50 [1] was 1 µM. For the same molecule, the IC50 (B/Shandong/7/97; [2]) was 10 µM.
For CC(=O)NC1C(O)CC(O)(C(=O)O)OC1CNC12CC3CC(C)(CC(C)(C3)C1)C2 (stereo not shown) [Compound 8], the “antiviral activity relative to memantine (fold more)” value (A/Panama/2007/99-H3N2) was about 10 fold, the IC50 (A/Panama/2007/99-H3N2) was 10 µM and the “antiviral activity relative to memantine (fold more)” value [1] was about 10 fold. For the same molecule, the IC50 [1] was 10 µM, the IC50 (B/Shandong/7/97; [2]) was over 100 µM and the “antiviral activity against influenza virus type B in the tested concentration range” value (B/Shandong/7/97; tested 0.01-100 μM, PRA) was “Any antiviral activity of Compound 8 has been evidenced”.
CC12CC3CC(C)(C1)CC(N)(C3)C2 [Memantine, memantine, reference compound] showed an IC50 (A/Panama/2007/99-H3N2) of 100 µM, an IC50 [1] of 100 µM and an IC50 (B/Shandong/7/97; [2]) of 100 µM.
